Measurements as given in patent publication US20220183994A1, “DELIVERY DEVICES FOR LOCALIZED DELIVERY OF ANTIMICROBIAL, ANTI-INFLAMMATORY, AND ANTIOXIDANT AGENTS” (priority 2019, published 2022).
Like-named read-outs stand apart in the source and are kept apart here.

Assays:
[1] = Total Antioxidant Capacity Assay (Trolox standard curve, Cu+2 probe); settings: 10 mM antioxidant, compared with trolox
Experimental: Activity of antioxidants. […] A standard curve correlating the Trolox concentration to the antioxidant capacity was generated according to manufacturer's protocol. […] Two million 16HBE cells were seeded into each well of a 12-well plate and incubated overnight as described above. […] Finally, the insoluble cell debris was removed by centrifugation and the supernatant analyzed as described above to determine the total antioxidant capacity. All experiments were performed with 4 technical replicates and two biological replicates.

16HBE cells [2] = test system: 16HBE cells
Experimental: Cells were seeded at a density of 25,000 cells/well in a 96-well plate and incubated overnight as described above. […] ALAMARBLUE® test reagent was added to each well, and the plates were incubated as described above. At 8-hour and 24-hour timepoints, absorbance was measured at 570 and 600 nm, normalized to media only controls, and analyzed per manufacturer's instructions. All experiments were performed with 6 technical replicates and 3 biological replicates.
Statistics. All data were analyzed using GraphPad Prism 7 (GraphPad Software, Inc., La Jolla, Calif.). […] Additionally, non-linear regression was used to deduce the lethal dose at median cell viability (LD50) for cell viability assays.

[3] = test system: human bronchial epithelial (16HBE) cells; experiment: Cellular ROS/Superoxide Detection Assay in silver-exposed cells; type: cell-based
Experimental: Cellular ROS and superoxide levels were measured in 16HBE cells using a Cellular ROS/Superoxide Detection Assay Kit according to manufacturer's recommended protocol. Briefly, cells were seeded at a density of 25,000 cells/well in a black wall/clear bottom 96-well plate and incubated for 24 h as described above. Next, the feeding media was aspirated and cells were incubated with fresh media supplemented with or without 10 mM NAC for 2 h. […] Upon staining, the fluorescence signal from the two fluorescent dyes, green signal from ROS detection probe (Ex/Em=490/525 nm) and orange signal from superoxide detection probe (Ex/Em=550/620 nm), were quantified using a BioTek Instruments Cytation 5 Multimode Reader at 0, 4, 6, 8, and 24 h. […] All experiments were performed with 6 technical replicates and a minimum of 2 biological replicates.

16HBE cells [4] = experiment: Glucose/lactate (BioProfile analyzer) and metabolite pool size and labeling (GC-MS); type: cell-based, human
Experimental: Analysis of total metabolite pool size and metabolite labeling patterns using Gas Chromatography-Mass Spectroscopy. 16HBE cells were seeded at a density of 250,000 cells per dish in a 60 mm cell culture dish and incubated until they reached 90% confluency. During this period, feeding media was replaced every 48 h. Once confluent, the media was aspirated, cells were washed with 1× PBS, and incubated with 2 mL 0 or 10 mM NAC for 2 h. […] At 8 h, the feeding medium from each plate was collected, centrifuged at 1000 rpm for 5 min to remove any cell debris, and frozen at −80° C., until further analysis. The cells were washed twice with 1× PBS, re-suspended by gentle scraping in 1 mL chilled 50% methanol solution, cell lysate collected in centrifuge tubes, flash frozen using liquid nitrogen, and stored at −80° C. till analysis.
MEM and stock solution of 4 mM GLN-10 mM D-[U^13C]-GLC medium treated in an identical manner were used as controls.
Cell suspensions frozen in 50% methanol were thawed and subjected to three additional freeze-thaw cycles using liquid nitrogen and a water bath. Subsequently, the cell suspensions were centrifuged at 14,000 rpm for 10 min to remove cell debris, and the supernatants were transferred to individually labeled glass drying tubes. 10 μl of an internal standard (50 nmols of sodium 2-oxobutyrate) was added to each tube at this time, and the samples were air-dried on a heat block. The dried samples were derivatized by addition of 100 μl of Tri-sil HTP reagent (Thermo Scientific) to each tube, capping the tube, vortexing the samples, and placing them on the heat block for an additional 30 min. The derivatized samples were transferred to auto-injector vials and analyzed using gas chromatography-mass spectroscopy (GC-MS; Agilent Technologies, Santa Clara, Calif.). Separately, the cell pellets with residual cell lysate was collected, contents thoroughly mixed with 200 μL 0.1 N sodium hydroxide, and heated to 100° C. to extract and solubilize the proteins. The samples were cooled and analyzed using a standard BCA assay to quantify the protein content. All metabolite concentrations determined using the BioProfile Basic-4 analyzer (NOVA) and GC-MS were normalized with the protein content.

16HBE cells [5] = experiment: ATP content (ATP determination kit); type: cell-based, human; settings: 10 mM NAC pre-incubation, silver acetate 8 h, vs cells exposed to silver alone
Experimental: 50,000 16HBE cells were seeded in each well of a 96-well plate and the cells were allowed to attach. At 24 h, media was aspirated, and cells were pre-incubated with 80 μL of 0 or 10 mM concentrations of NAC for 2 h. […] Finally, the cell lysate was collected and the ATP concentration determined and correlated to an established standard curve. Briefly, a standard reaction mixture consisting of molecular grade water, reaction buffer, Dithiothreitol (DTT) solution, D-luciferin, and firefly luciferase at manufacturer recommended concentrations was prepared. Next, 10 μL of standard ATP solution or cell lysate was mixed with 90 μL standard reaction mixture in a 96-well white bottom plate and luminescence was measured at 560 nm. Background luminescence was subtracted from all readings and the data were normalized to drug free controls.

[6] = test system: 31 P. aeruginosa isolates; experiment: MIC90/MBC90 over expanded isolate panel; type: cell-based, Pseudomonas aeruginosa
[7] = 50 μg/mL silver acetate after 10 mM antioxidant pre-incubation

SMILES | antioxidant capacity, trolox equivalent [1] [fold] | cell survival (16HBE cells [2]; [7]) [%] | cell survival (16HBE cells [2]; 7.5 and 10 mM ascorbic acid pre-incubation, up to 100 μg/mL silver acetate) | effect of NAC pre-incubation itself on superoxide levels [3] | superoxide levels ([3]; 10 mM NAC pre-incubation, 10, 20, and 50 μg/mL silver acetate, 8 and 24 hours) | ROS levels ([3]; 10 mM NAC pre-incubation, silver acetate higher than 20 μg/mL, 8 and 24 hours) | superoxide levels ([3]; NAC pre-incubation, 100 μg/mL silver acetate, 8 hours) | superoxide levels ([3]; NAC pre-incubation, 100 μg/mL silver acetate, 24 hours) | ROS induced by NAC pre-incubation itself ([3]; subsides after 8 hours) | lactate levels (GC-MS) (16HBE cells [4]; NAC pre-incubated cells, 50 μg/mL silver acetate only) | citrate, glutamate, fumarate, and malate levels (16HBE cells [4]; NAC pre-incubated cells, 30, 40, 50, and 75 μg/mL silver acetate) | aspartate levels (16HBE cells [4]; NAC pre-incubated cells, 50 and 75 μg/mL silver acetate) | glucose consumption and lactate production (16HBE cells [4]; cells pre-treated with 0 vs 10 mM NAC) | labeling patterns of key metabolites (16HBE cells [4]; pre-incubation with NAC) | ATP production (16HBE cells [5]) | MBC90 ([6]; concentration required to eradicate 90% of 31 P. aeruginosa isolates) [µg/mL] | MIC90 ([6]; concentration required to inhibit 90% of 31 P. aeruginosa isolates) [µg/mL]
O=C1O[C@H]([C@@H](O)CO)C(O)=C1O [Ascorbic Acid, ascorbic acid] | 40 | 22 | significantly (p<0.05) higher | – | – | – | – | – | – | – | – | – | – | – | – | – | –
CC(=O)N[C@@H](CS)C(=O)O [NAC, N-acetyl cysteine] | – | 86 | – | no effect | significantly (p≤0.001) lower | significantly (p≤0.001) lower | significantly (p≤0.01) lower | not at 24 hours | initially induces ROS | significantly higher | significantly (p≤0.05) higher | significantly (p≤0.05) higher | No significant difference | does not appreciably alter | significantly higher | – | –
CC(C)Cc1ccc(C(C)C(=O)O)cc1.[Ag] (stereo not drawn) [Silver Ibuprofen, silver salt of ibuprofen] | – | – | – | – | – | – | – | – | – | – | – | – | – | – | – | 4 | 4
